# In patent publication US5516759A, “LHRH antagonists having lactam groups at the N-terminus” (TAP Holdings Inc., priority 1994, dated 1996):
# Where a SMILES comes first, the peptide text is derived from it. Side-chain parts run from the residue outwards. [ ]: non-standard residue; d: D form. The star is where a group is joined. d2Nal(N,N-C(O)(CH2)4) = O=C1CCCCN1[C@H](Cc1ccc2ccccc2c1)C(=O)*; d2Nal(N,N-(CH2)3CO) = O=C1CCCN1[C@H](Cc1ccc2ccccc2c1)C(=O)*; Shikimoyl = O=C(C1=C[C@@H](O)[C@@H](O)[C@H](O)C1)*; Acetyl(2-oxopyrrolidin-1-yl) = O=C1CCCN1CC(=O)*; dPhe(4-Cl) = N[C@H](Cc1ccc(Cl)cc1)C(=O)O; d1Nal = N[C@H](Cc1cccc2ccccc12)C(=O)O; d(hCit) = NC(=O)NCCCC[C@@H](N)C(=O)O; Lys(iPr) = CC(C)NCCCC[C@H](N)C(=O)O; NMeY = CN[C@@H](Cc1ccc(O)cc1)C(=O)O; dCit = NC(=O)NCCC[C@@H](N)C(=O)O; hArg = N=C(N)NCCCC[C@H](N)C(=O)O; d3Pal = N[C@H](Cc1cccnc1)C(=O)O; Nicotinoyl = O=C(c1cccnc1)*
# Biological target: T1, LHRH (Rattus norvegicus, UniProt P30969)
# T1 construct: endogenous in cells
# T1 sequence (P30969 1-327): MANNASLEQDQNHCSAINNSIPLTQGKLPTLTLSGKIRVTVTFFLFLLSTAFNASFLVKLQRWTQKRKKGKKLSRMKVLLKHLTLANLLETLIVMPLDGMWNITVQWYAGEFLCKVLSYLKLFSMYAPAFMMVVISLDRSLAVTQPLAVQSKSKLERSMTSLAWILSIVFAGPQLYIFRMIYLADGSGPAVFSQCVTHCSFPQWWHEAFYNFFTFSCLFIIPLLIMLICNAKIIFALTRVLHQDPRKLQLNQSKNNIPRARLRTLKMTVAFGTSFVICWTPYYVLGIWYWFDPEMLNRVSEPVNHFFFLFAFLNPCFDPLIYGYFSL
# Test: in vitro test for LHRH antagonist potency (pA2)
# Assay type: cell-based
# Details: negative logarithm of the antagonist concentration required to shift the response curve produced by the agonist leuprolide to two-fold higher concentration
# Procedure: Representative compounds of the present invention were evaluated in an in vitro test for LHRH antagonist potency (pA2). The test employed the method detailed in F. Haviv, et al. J. Med. Chem., 32:2340-2344 (1989). The values of pA2 are the negative logarithms of the concentration of the particular antagonist test compound required to shift the response curve produced by the agonist leuprolide to two-fold higher concentration. (Leuprolide is disclosed and claimed in U.S. Pat. No. 4,005,063.) Typically pA2 values of 9.5 or greater are indicative of good LHRH antagonist potency, with values of 10.0 or greater being preferred.
row,SMILES,Kb
1,"CC(C)C[C@H](NC(=O)[C@@H](CCCNC(N)=O)NC(=O)[C@H](Cc1ccc(O)cc1)N(C)C(=O)[C@H](CO)NC(=O)[C@@H](Cc1cccnc1)NC(=O)[C@@H](Cc1ccc(Cl)cc1)NC(=O)[C@@H](Cc1ccc2ccccc2c1)N1CCCC1=O)C(=O)N[C@@H](CCCNC(=N)N)C(=O)N1CCC[C@H]1C(=O)N[C@H](C)C(N)=O [Example 1, 5LactD2Nal^1 -D4ClPhe^2 -D3Pal^3 -Ser^4 -NMeTyr^5 -DCit^6 -Leu^7 -Arg^8 -Pro^9 -DAla^10 NH2] ({d2Nal(N,N-(CH2)3CO)}-[dPhe(4-Cl)][d3Pal]S[NMeY][dCit]LRP[dA]-NH2)",0.00813 nM
2,"CC(C)C[C@H](NC(=O)[C@@H](CCCCNC(=O)C1=C[C@@H](O)[C@@H](O)[C@H](O)C1)NC(=O)[C@H](Cc1ccc(O)cc1)N(C)C(=O)[C@H](CO)NC(=O)[C@@H](Cc1cccnc1)NC(=O)[C@@H](Cc1ccc(Cl)cc1)NC(=O)[C@@H](Cc1ccc2ccccc2c1)N1CCCC1=O)C(=O)N[C@@H](CCCNC(=N)N)C(=O)N1CCC[C@H]1C(=O)N[C@H](C)C(N)=O [Example 2, 5LactD2Nal^1 -D4ClPhe^2 -D3Pal^3 -Ser^4 -NMeTyr^5 -DLys(N-epsilon-Shik)^6 -Leu^7 -Arg^8 -Pro^9 -DAla^10 NH2] ({d2Nal(N,N-(CH2)3CO)}-[dPhe(4-Cl)][d3Pal]S[NMeY][dK](Shikimoyl)LRP[dA]-NH2)",0.0263 nM
3,"CC(C)C[C@H](NC(=O)[C@@H](CCCCNC(=O)CNC(=O)C1=C[C@@H](O)[C@@H](O)[C@H](O)C1)NC(=O)[C@H](Cc1ccc(O)cc1)N(C)C(=O)[C@H](CO)NC(=O)[C@@H](Cc1cccnc1)NC(=O)[C@@H](Cc1ccc(Cl)cc1)NC(=O)[C@@H](Cc1ccc2ccccc2c1)N1CCCC1=O)C(=O)N[C@@H](CCCNC(=N)N)C(=O)N1CCC[C@H]1C(=O)N[C@H](C)C(N)=O [Example 3, 5LactD2Nal^1 -D4ClPhe^2 -D3Pal^3 -Ser^4 -NMeTyr^5 -DLys(N-epsilon-Gly-Shik)^6 -Leu^7 -Arg^8 -Pro^9 -DAla^10 NH2] ({d2Nal(N,N-(CH2)3CO)}-[dPhe(4-Cl)][d3Pal]S[NMeY][dK]([Gly-Shikimoyl])LRP[dA]-NH2)",0.0209 nM
4,"CC(C)C[C@H](NC(=O)[C@@H](CCCCNC(=O)C1=C[C@@H](O)[C@@H](O)[C@H](O)C1)NC(=O)[C@H](Cc1ccc(O)cc1)N(C)C(=O)[C@H](CO)NC(=O)[C@@H](Cc1cccnc1)NC(=O)[C@@H](Cc1ccc(Cl)cc1)NC(=O)[C@@H](Cc1ccc2ccccc2c1)N1CCCC1=O)C(=O)N[C@@H](CCCCNC(=N)N)C(=O)N1CCC[C@H]1C(=O)N[C@H](C)C(N)=O [Example 4, 5LactD2Nal^1 -D4ClPhe^2 -D3Pal^3 -Ser^4 -NMeTyr^5 -DLys(N-epsilon-Shik)^6 -Leu^7 -Harg^8 -Pro^9 -DAla^10 NH2] ({d2Nal(N,N-(CH2)3CO)}-[dPhe(4-Cl)][d3Pal]S[NMeY][dK](Shikimoyl)L[hArg]P[dA]-NH2)",0.00692 nM
5,"CC(C)C[C@H](NC(=O)[C@@H](CCCCNC(=O)CNC(=O)C1=C[C@@H](O)[C@@H](O)[C@H](O)C1)NC(=O)[C@H](Cc1ccc(O)cc1)N(C)C(=O)[C@H](CO)NC(=O)[C@@H](Cc1cccnc1)NC(=O)[C@@H](Cc1ccc(Cl)cc1)NC(=O)[C@@H](Cc1ccc2ccccc2c1)N1CCCC1=O)C(=O)N[C@@H](CCCCNC(=N)N)C(=O)N1CCC[C@H]1C(=O)N[C@H](C)C(N)=O [Example 5, 5LactD2Nal^1 -D4ClPhe^2 -D3Pal^3 -Ser^4 -NMeTyr^5 -DLys(N-epsilon-Gly-Shik)^6 -Leu^7 -Harg^8 -Pro^9 -DAla^10 NH2] ({d2Nal(N,N-(CH2)3CO)}-[dPhe(4-Cl)][d3Pal]S[NMeY][dK]([Gly-Shikimoyl])L[hArg]P[dA]-NH2)",0.00646 nM
6,"CC(C)C[C@H](NC(=O)[C@@H](CCCCNC(=O)c1cccnc1)NC(=O)[C@H](Cc1ccc(O)cc1)N(C)C(=O)[C@H](CO)NC(=O)[C@@H](Cc1cccnc1)NC(=O)[C@@H](Cc1ccc(Cl)cc1)NC(=O)[C@@H](Cc1ccc2ccccc2c1)N1CCCC1=O)C(=O)N[C@@H](CCCCNC(C)C)C(=O)N1CCC[C@H]1C(=O)N[C@H](C)C(N)=O [Example 7, 5LactD2Nal^1 -D4ClPhe^2 -D3Pal^3 -Ser^4 -NMeTyr^5 -DLys(N-epsilon-Nic)^6 -Leu^7 -Lys(N-epsilon-Isopropyl)^8 -Pro^9 -DAla^10 NH2] ({d2Nal(N,N-(CH2)3CO)}-[dPhe(4-Cl)][d3Pal]S[NMeY][dK](Nicotinoyl)L[Lys(iPr)]P[dA]-NH2)",0.0372 nM
7,"CC(C)C[C@H](NC(=O)[C@@H](CCCCNC(=O)C1=C[C@@H](O)[C@@H](O)[C@H](O)C1)NC(=O)[C@H](Cc1ccc(O)cc1)N(C)C(=O)[C@H](CO)NC(=O)[C@@H](Cc1cccnc1)NC(=O)[C@@H](Cc1ccc(Cl)cc1)NC(=O)[C@@H](Cc1ccc2ccccc2c1)N1CCCCC1=O)C(=O)N[C@@H](CCCNC(=N)N)C(=O)N1CCC[C@H]1C(=O)N[C@H](C)C(N)=O [Example 8, 6LactD2Nal^1 -D4ClPhe^2 -D3Pal^3 -Ser^4 -NMeTyr^5 -DLys(N-epsilon-Shik)^6 -Leu^7 -Arg^8 -Pro^9 -DAla^10 NH2] ({d2Nal(N,N-C(O)(CH2)4)}-[dPhe(4-Cl)][d3Pal]S[NMeY][dK](Shikimoyl)LRP[dA]-NH2)",0.0129 nM
8,"CC(C)C[C@H](NC(=O)[C@@H](CCCCNC(=O)CNC(=O)C1=C[C@@H](O)[C@@H](O)[C@H](O)C1)NC(=O)[C@H](Cc1ccc(O)cc1)N(C)C(=O)[C@H](CO)NC(=O)[C@@H](Cc1cccnc1)NC(=O)[C@@H](Cc1ccc(Cl)cc1)NC(=O)[C@@H](Cc1ccc2ccccc2c1)N1CCCCC1=O)C(=O)N[C@@H](CCCNC(=N)N)C(=O)N1CCC[C@H]1C(=O)N[C@H](C)C(N)=O [Example 9, 6LactD2Nal^1 -D4ClPhe^2 -D3Pal^3 -Ser^4 -NMeTyr^5 -DLys(N-epsilon-Gly-Shik)^6 -Leu^7 -Arg^8 -Pro^9 -DAla^10 NH2] ({d2Nal(N,N-C(O)(CH2)4)}-[dPhe(4-Cl)][d3Pal]S[NMeY][dK]([Gly-Shikimoyl])LRP[dA]-NH2)",0.0355 nM
9,"CC(C)C[C@H](NC(=O)[C@@H](CCCCNC(=O)C1=C[C@@H](O)[C@@H](O)[C@H](O)C1)NC(=O)[C@H](Cc1ccc(O)cc1)N(C)C(=O)[C@H](CO)NC(=O)[C@@H](Cc1cccnc1)NC(=O)[C@@H](Cc1ccc(Cl)cc1)NC(=O)[C@@H](Cc1ccc2ccccc2c1)N1CCCCC1=O)C(=O)N[C@@H](CCCCNC(=N)N)C(=O)N1CCC[C@H]1C(=O)N[C@H](C)C(N)=O [Example 10, 6LactD2Nal^1 -D4ClPhe^2 -D3Pal^3 -Ser^4 -NMeTyr^5 -DLys(N-epsilon-Shik)^6 -Leu^7 -Harg^8 -Pro^9 -DAla^10 NH2] ({d2Nal(N,N-C(O)(CH2)4)}-[dPhe(4-Cl)][d3Pal]S[NMeY][dK](Shikimoyl)L[hArg]P[dA]-NH2)",0.0209 nM
10,"CC(C)C[C@H](NC(=O)[C@@H](CCCCNC(=O)CNC(=O)C1=C[C@@H](O)[C@@H](O)[C@H](O)C1)NC(=O)[C@H](Cc1ccc(O)cc1)N(C)C(=O)[C@H](CO)NC(=O)[C@@H](Cc1cccnc1)NC(=O)[C@@H](Cc1ccc(Cl)cc1)NC(=O)[C@@H](Cc1ccc2ccccc2c1)N1CCCCC1=O)C(=O)N[C@@H](CCCCNC(=N)N)C(=O)N1CCC[C@H]1C(=O)N[C@H](C)C(N)=O [Example 11, 6LactD2Nal^1 -D4ClPhe^2 -D3Pal^3 -Ser^4 -NMeTyr^5 -DLys(N-epsilon-Gly-Shik)^6 -Leu^7 -Harg^8 -Pro^9 -DAla^10 NH2] ({d2Nal(N,N-C(O)(CH2)4)}-[dPhe(4-Cl)][d3Pal]S[NMeY][dK]([Gly-Shikimoyl])L[hArg]P[dA]-NH2)",0.0209 nM
11,"CC(C)C[C@H](NC(=O)[C@@H](CCCCNC(N)=O)NC(=O)[C@H](Cc1ccc(O)cc1)NC(=O)[C@H](CO)NC(=O)[C@@H](Cc1cccnc1)NC(=O)[C@@H](Cc1ccc(Cl)cc1)NC(=O)[C@@H](Cc1ccc2ccccc2c1)N1CCCC1=O)C(=O)N[C@@H](CCCCNC(C)C)C(=O)N1CCC[C@H]1C(=O)N[C@H](C)C(N)=O [Example 12, 5LactD2Nal^1 -D4ClPhe^2 -D3Pal^3 -Ser^4 -Tyr^5 -DHcit^6 -Leu^7 -Lys(isp)^8 -Pro^9 -DAla^10NH2] ({d2Nal(N,N-(CH2)3CO)}-[dPhe(4-Cl)][d3Pal]SY[d(hCit)]L[Lys(iPr)]P[dA]-NH2)",0.0178 nM
12,"CC(C)C[C@H](NC(=O)[C@@H](CCCCNC(=O)c1cccnc1)NC(=O)[C@H](Cc1ccc(O)cc1)N(C)C(=O)[C@H](CO)NC(=O)[C@@H](Cc1cccnc1)NC(=O)[C@@H](Cc1ccc(Cl)cc1)NC(=O)[C@@H](Cc1ccc2ccccc2c1)N1CCCCC1=O)C(=O)N[C@@H](CCCCNC(C)C)C(=O)N1CCC[C@H]1C(=O)N[C@H](C)C(N)=O [Example 13, 6LactD2Nal^1 -D4ClPhe^2 -D3Pal^3 -Ser^4 -NMeTyr^5 -DLys(N-epsilon-Nic)^6 -Leu^7 -Lys(N-epsilon-Isopropyl)^8 -Pro^9 -DAla^10 NH2] ({d2Nal(N,N-C(O)(CH2)4)}-[dPhe(4-Cl)][d3Pal]S[NMeY][dK](Nicotinoyl)L[Lys(iPr)]P[dA]-NH2)",0.0178 nM
13,"CC(C)C[C@H](NC(=O)[C@@H](CCCNC(N)=O)NC(=O)[C@H](Cc1ccc(O)cc1)N(C)C(=O)[C@H](CO)NC(=O)[C@@H](Cc1cccc2ccccc12)NC(=O)[C@@H](Cc1ccc(Cl)cc1)NC(=O)CN1CCCC1=O)C(=O)N[C@@H](CCCNC(=N)N)C(=O)N1CCC[C@H]1C(=O)N[C@H](C)C(N)=O [Example 14, 5LactGly^1 -D4ClPhe^2 -D1Nal^3 -Ser^4 -NMeTyr^5 -DCit^6 -Leu^7 -Arg^8 -Pro^9 -DAla^10 NH2] ({Acetyl(2-oxopyrrolidin-1-yl)}-[dPhe(4-Cl)][d1Nal]S[NMeY][dCit]LRP[dA]-NH2)",0.0178 nM
